According to patent US20220233624A9, “ANTI-CANCER AND ANTI-PROLIFERATIVE COMPOSITIONS, AND METHODS FOR THEIR USE IN TREATING CANCER” (Natreon, Inc., priority 2020, published 2022):
Several values for one entry are separate records, joined by “and”; a condition that tells them apart may be missing. Identical values can stand only once. Like-named read-outs stand apart in the source and are kept apart here.

Legend:
[1] = tested on: SHP-77 (small cell lung cancer) cells; assay: Anti-proliferation assay on small cell lung cancer cells; type: cell-based; conditions: Homo sapiens, SHP77
Procedure: SHP-77 (small cell lung cancer) cells were incubated for 72 hours with 100 ug/ml, 30 ug/ml, and 10 ug/ml each of AyuFlex®, Capros® Phyto-BGS®, PrimaVie®, Sensoril®, Ayuric®, and Crominex®, and tested according to the anti-proliferative assay described above. Cells were plated at 1.25 k/well in 384 well plates. Standard of care drug docetaxel was also tested at a 10 uM concentration as a control. Anti-proliferative assays were generally performed as discussed above, in triplicate, with detection reagent CellTiterGlo® as discussed for instance in Example I. Tables 77-79 show data for controls and that the data passed quality control parameters.

[2] = tested on: colon cancer cells (cell line HT-29); assay: Anti-proliferation assay on colon cancer cells; type: cell-based; conditions: Homo sapiens
Procedure: Anti-proliferative and anti-cancer activity of extracts of this invention on non-small cell lung cancer cells and colon cancer cells were assessed generally as described in Example I and are discussed below. […] As noted throughout this application, the below data is intended to describe the present invention but not to be limiting.
Non-small cell lung cancer cells (cell line NCI-H-358) and colon cancer cells (cell line HT-29) were plated in a 384-well plate in amounts of about 1.25 k cells/well. […] Wells with untreated cells and with plain media were also included as controls. Plates passed quality control parameters.

AML cell line HL60 = assay: Anti-proliferation assay on HL60 AML cells; type: cell-based; conditions: for inhibition at 10 µM: 72 h, Plate 1
Procedure: 2500 cells were plated per well in 384 well plates. […] CellTiter Glo was used as a detection reagent. Extracts were incubated with the AML HL60 cells for 72 hours.

[3] = tested on: Pancreatic cancer (Panc-1) cells; assay: Anti-proliferation assay on pancreatic cancer cells; type: cell-based; conditions: Homo sapiens
Procedure: Cells were plated at 1.25 k/well in 384 well plates. […] Anti-proliferative assays were generally performed as described in Example I above, in triplicate, with detection reagent CellTiterGlo. Tables 98-99 show data for controls for assays on histiocytic lymphoma (U-937) cells, and that the data passed quality control parameters. Tables 101-102 show data for controls for assays on pancreatic cancer (Panc-1) cells, and that the data passed quality control parameters. […] The assay is generally as described in Example I.

[4] = tested on: Breast Cancer PDCs, ER/PR− Her2+ (Her2+); assay: Anti-proliferation assay on breast cancer Her2+ PDCs; type: cell-based, human; conditions: drug alone @ 10 uM; 10 µM
Procedure: The outermost rows/columns of the plates were filled with PBS (pH 7.4) to avoid an edge-effect and were considered as blanks. Standardized aqueous extracts identified in Table 2 were prepared in main stock solutions by dissolving 1 mg of extract in 1 ml PBS (phosphate-buffered saline, pH 7.4). […] The plate was incubated in a CO2 incubator for 0/N incubation for 24 hours. […] Once extracts were added to incubated cells and mixed gently, the plate was given a brief spin and incubated in the CO2 incubator for 72 hours. The plate was removed from the incubator and 10 ul of detection reagent (CellTiterGlo®; Promega Corporation, Wisconsin, USA) added to each well of the 384 well plate. […] The assay described above is a two-dimensional (2D) assay.

[5] = tested on: Glioma SB 32833 Glioblastoma Grade IV patient derived cells; assay: Anti-proliferation assay on glioma PDCs SB 32833; type: cell-based; conditions: Homo sapiens, drug @ 10 uM
Procedure: The anti-cancer activity of AyuFlex®, Capros®, and Ayuric® was further tested on two other glioma PDCs taken from 2-3 different subjects (SB 6129, SB 32833 (person)). […] Also, the anti-cancer activity of AyuFlex®, Capros®, and Ayuric® was further tested on existing glioblastoma cell line U87 MG, to allow comparisons with other compositions known in the art. AyuFlex®, Capros®, and/or Ayuric® were incubated with the new PDC lines and the U87 MG cell line for 72 hours, as described in Example I above.
Table 68 relates to FIG. 31, a graph showing the efficacy of AyuFlex®, Capros®, and/or Ayuric® on Glioma SB 32833 Glioblastoma Grade IV patient derived cells, in a combination study.

[6] = tested on: TN Breast Cancer cell line MDAMB-231; assay: Anti-proliferation assay on MDAMB-231 cells (72 h and 120 h); type: cell-based; conditions: Homo sapiens, MDA-MB-231, 10 uM
Procedure: Also, AyuFlex®, Capros®, and Ayuric® were tested in the anti-proliferative assay discussed above in the TN Breast Cancer cell line MDAMB-231. AyuFlex®, Capros®, and Ayuric® were incubated for 72 hours and 120 hours. The dose-response efficacy of AyuFlex®, Capros®, and Ayuric® after a 72-hour period of incubation was similar to that observed after a 120-hour period of incubation with the MDAMB-231 cells. Without being bound by theory, possibly this was due to saturation of cell growth at the 120-hour time-point.

[7] = tested on: Ovarian cancer (OVCAR-3) cells; assay: Anti-proliferation assay on ovarian cancer cells; type: cell-based; conditions: Homo sapiens
Procedure: Cells were plated at 1.25 k/well in 384 well plates. […] Anti-proliferative assays were generally performed as discussed in Example I above, in triplicate, with detection reagent CellTiterGlo. Tables 80-82 show data for controls for assays on prostate cancer (PC-3 cells), and that the data passed quality control parameters. Tables 83-85 show data for controls for assays on ovarian cancer (OVCAR-3 cells), and that the data passed quality control parameters.

[8] = 10 uM, 72 h, read-out: % Inhibition Average (SD)
[9] = 10 uM, 72 h, read-out: % Inhibition n1
[10] = 10 uM, 72 h, read-out: % Inhibition n2
[11] = 10 uM, 72 h, read-out: % Inhibition n3
[12] = drug 10 uM, read-out: inhibition

Work on `COc1cccc2c1C(=O)c1c(O)c3c(c(O)c1C2=O)C[C@@](O)(C(=O)CO)C[C@@H]3O[C@H]1C[C@H](N)[C@H](O)[C@H](C)O1` [Doxorubicin, doxorubicin] yielded an inhibition at 10 µM [1, 8] of 93%, an inhibition at 10 µM [1, 9] of 94% and an inhibition at 10 µM [1, 10] of 93%. The inhibition at 10 µM [1, 11] was 93%, the inhibition at 10 µM [1, 12] was 93% and the inhibition at 10 µM ([2]; drug 10 uM, read-out: inhibition of proliferation) was 94%. For the same compound, the inhibition at 10 µM ([2]; plate control @ 10 uM, read-out: % Inhibition Average (SD)) was 94%, the inhibition at 10 µM ([2]; plate control @ 10 uM, read-out: % Inhibition n1) was 94% and the inhibition at 10 µM ([2]; plate control @ 10 uM, read-out: % Inhibition n2) was 93%. The inhibition at 10 µM ([2]; plate control @ 10 uM, read-out: % Inhibition n3) was 94%, the IC25 (AML cell line HL60; HL60 AML cells, potential dosing for further experiments) was 59 nM and the inhibition at 3 µM (AML cell line HL60; Homo sapiens, HL-60) was no less than 90%. It also gave an inhibition at 10 µM (AML cell line HL60; Homo sapiens, HL-60, read-out: % Inhibition Average (SD)) of 0%, an inhibition at 10 µM (AML cell line HL60; Homo sapiens, HL-60, read-out: % Inhibition n1) of 100% and an inhibition at 10 µM (AML cell line HL60; Homo sapiens, HL-60, read-out: % Inhibition n2) of 100%. The inhibition at 10 µM (AML cell line HL60; Homo sapiens, HL-60, read-out: % Inhibition n3) was 100%, the IC50 (AML cell line HL60; Homo sapiens, HL-60, dose-response curve, FIG. 35) was 79 nM and the inhibition at 10 µM [3, 8] was 94%. The inhibition at 10 µM [3, 9] was 94%, the inhibition at 10 µM [3, 10] was 94% and the inhibition at 10 µM [3, 11] was 95%. The inhibition at 10 µM [3, 12] was 94%, the “% Inhibition Avg” value [4] was 60% and 96% and the “% Inhibition, single replicates” value [4] was 62% and 58% and 95% and 97%. For the same compound, the inhibition at 10 µM ([5]; read-out: % Inhibition Avg) was 87%, the inhibition at 10 µM ([5]; read-out: % Inhibition n1) was 91% and the inhibition at 10 µM ([5]; read-out: % Inhibition n2) was 86%. It also gave an inhibition at 10 µM ([5]; read-out: % Inhibition n3) of 86%, an inhibition at 10 µM ([6]; 72 hour incubation, read-out: % Inhibition Avg) of 75% and an inhibition at 10 µM ([6]; 72 hour incubation, read-out: % Inhibition n1) of 78%. The inhibition at 10 µM ([6]; 72 hour incubation, read-out: % Inhibition n2) was 73%, the inhibition at 10 µM ([6]; 72 hour incubation, read-out: % Inhibition n3) was 73% and the inhibition at 10 µM ([6]; 120 hour incubation, read-out: % Inhibition Avg) was 92%. The inhibition at 10 µM ([6]; 120 hour incubation, read-out: % Inhibition n1) was 94%, the inhibition at 10 µM ([6]; 120 hour incubation, read-out: % Inhibition n2) was 91% and the inhibition at 10 µM ([6]; 120 hour incubation, read-out: % Inhibition n3) was 92%. The inhibition at 10 µM [7, 8] was 76%, the inhibition at 10 µM [7, 9] was 74% and the inhibition at 10 µM [7, 10] was 75%. It also gave an inhibition at 10 µM [7, 11] of 79% and an inhibition at 10 µM [7, 12] of 76%.
